Experimental data as given in PubChem BioAssay AID1745844 (Carcinogenic Potency Database (CPDB), 2022).
Active and inactive are the calls of the source. How the calls were made is not given here.

System: rodent lifetime carcinogenesis bioassay, tumor incidence TD50
Assay: chronic cancer bioassays in animals – CPDB, compiled studies (AID 1745844)
Details: in feed

SMILES	TD50 (mouse, strain B6C3F1, females, site: any site (literature study), lesion: several types, types named in the paper, dosed 90 weeks, study length 105 weeks) [mg/kg/day]	TD50 (mouse, strain B6C3F1, females, site: liver, lesion: hepatocellular adenoma + hepatocellular carcinoma + neoplastic nodule, dosed 90 weeks, study length 105 weeks) [mg/kg/day]	TD50 (mouse, strain B6C3F1, females, site: liver, lesion: hepatocellular adenoma, dosed 90 weeks, study length 105 weeks) [mg/kg/day]	TD50 (mouse, strain B6C3F1, females, site: lung, lesion: alveolar/bronchiolar adenoma + alveolar/bronchiolar carcinoma, dosed 90 weeks, study length 105 weeks) [mg/kg/day]	carcinogen call (mouse, strain B6C3F1, males, site: any site (literature study), lesion: several types, types named in the paper, dosed 90 weeks, study length 105 weeks)	carcinogen call (rat, strain Fischer 344, females, site: any site (literature study), lesion: several types, types named in the paper, dosed 87 weeks, study length 103 weeks)	TD50 (rat, strain Fischer 344, males, site: any site (literature study), lesion: several types, types named in the paper, dosed 87 weeks, study length 103 weeks)	TD50 (rat, strain Fischer 344, males, site: liver, lesion: hepatocellular adenoma + hepatocellular carcinoma + neoplastic nodule, dosed 87 weeks, study length 103 weeks) [mg/kg/day]	carcinogen call (rat, strain Charles River CD (Sprague-Dawley), males, site: liver, lesion: carcinoma, dosed 73 weeks, study length 95 weeks)
CC(=O)Nc1ccc(C(=O)CCl)cc1	3500	4700	4700	3020	negative (inactive)	negative (inactive)	325 mg/kg/day (inactive)	2470	
C=CC(=O)c1ccc2c(c1)OCO2									negative (inactive)
